Experiments:
[1] = tested on: high fat high cholesterol (HFHC) diet rats; experiment: Combination treatment with berberine and simvastatin in HFHC diet rats (Table 8); assay type: in vivo, rat; conditions: oral, after 25 days, daily dose berberine 100 mg/kg, simvastatin 25 mg/kg, combination 100 + 25, average ± standard error
Experimental: Rats were fed a high fat high cholesterol (HFHC) diet for 10 days, and then divided into groups of seven. The rats were then administered berberine or simvastatin, or a combination of berberine and simvastatin orally for 25 days. After 25 days, serum cholesterol, triglyceride and LDL-c levels were measured. […] The combination of simvastatin, and berberine lowered the cholesterol, triglyceride and LDL-c levels further than either alone.

[2] = tested on: SREBP2; experiment: Precursor and mature forms of SREBP2 in HepG2 cells (Western blot); assay type: cell-based, human; conditions: 8 hours
Text: Total cell lysates from untreated cells or cells treated with either berberine or GW707 were then harvested and analyzed by Western blot.

[3] = tested on: LDLR promoter; experiment: LDLR promoter activity, pLDLR234Luc reporter in HepG2 cells; assay type: cell-based, human; conditions: pLDLR234Luc HepG2, LPDS or LPDS and cholesterol medium, 8 hour treatment
Text: HepG2 cells were transfected with the reporter construct pLDLR234Luc, which contains the SRE- I motif and the sterol-independent regulatory element that mediates the cytokine oncostatin M-induced transcription of the LDLR gene.

[4] = in vitro; assay type: in vitro ADME; conditions: rabbit
Experimental: The rabbit blood protein binding rate was measured by in vitro dialysis at a rate of 38±3% (XD±S, n=6).

[5] = Excretion of berberine in rats (urine, fecal matter, gall bladder secretions); assay type: in vivo, rat; conditions: rat, in vivo, iv
Experimental: In a final series of animal model studies, rats were orally administered 3H-berberine. Forty-eight hours after administration, excretions were tested for the presence of berberine. 2.7% of the oral dose was measured in the urine and 86% of the oral dose was measured in the fecal matter.
Rats received intravenous berberine (9.25 MBq/kg). Six days accumulation of rat urine and fecal secretions were measured for the presence of berberine. 73% of the intravenous dose of the berberine was found in the accumulated urine in both metabolized and unmetabolized forms. 10.9% of the intravenous dose was found in the fecal matter.
Three rats were given berberine (9.25 MBq/kg) intravenously. After 24 hours, gall bladder secretions were collected and evaluated for the presence of berberine. There was 10.1±0.9% (x±SD, n=3) of berberine in the gall bladder secretions.

[6] = Toxicity analysis (LD50) in rats; conditions: rat, in vivo
Experimental: Rats and mice were administered berberine through a variety of techniques, including orally, through subcutaneous injection, peritoneal injection and intravenous injection.

[7] = tested on: rat model subjects; experiment: Combinatorial anti-hyperlipidemia efficacy of berberine and lovastatin in rats (Table 9); assay type: in vivo
[8] = tested on: PKC; experiment: PKC activity in rat liver (PepTag assay); assay type: in vivo; conditions: berberine treated rats
Experimental: The livers were dissected and stored in liquid nitrogen for RNA extraction, real-time RT-PCR and PKC activity assay. Total blood samples were also collected to assay fasting blood glucose and serum insulin levels. The insulin levels were analyzed using radio-immunoassay (Linco Research, St Charles, Mo.). The insulin sensitivity indexes (ISI) were calculated according to the formula: 10^4/(fasting serum insulin X fasting blood glucose) (Hanson, Am. J. Epidemiol. 15 1(2), 190-198 (2000)). The insulin level and ISI of normal rats were also determined for comparison. […] It also elevated the fasting blood glucose from 7 to 12.8 mmol/L (P<0.001).
PKC activity was analyzed using the PepTag® Assay for Non-Radioactive Detection of Protein Kinase-C or cAMP-Dependent Protein Kinase kit (Promega) according to the protocol. Briefly, after homogenization and partial purification, […] was mixed with 5 μl of PepTag® Cl peptide (specific substrate of PKC), 5 μl of reaction buffer and 5 μl of PKC activator solution in a 25 μl reaction system. […] They were transferred to a 96-well plate and quantified using densitometry according to the supplier's protocol. The catalytic activity of total PKC of a specific sample was expressed as pmol/min/mg, representing the number of picomoles of phosphate transferred to the substrate per minute per milligram of proteins of the sample.

[9] = tested on: PPAR-r mRNA; experiment: PPAR-r mRNA expression in liver cells; assay type: cell-based; conditions: liver cells (data not shown)
Text: The effect of berberine on InsR was further confirmed in another hepatoma cell line, Bel-7402 […] (FIG. 18). […] The expression of PPAR-r mRNA in liver cells was not changed by berberine (data not shown).

[10] = tested on: LDLR mRNA; experiment: Screen of 700 compounds from Chinese herbs for LDLR mRNA in HepG2 cells (semi-quantitative RT-PCR); assay type: cell-based, human; conditions: HepG2, 24 hours
Experimental: In exemplary experiments, cells from a human hepatoma-derived cell line, HepG2, were treated for 24 hours with 700 compounds isolated from Chinese herbs. RNA was then isolated from the cells and analysis of LDLR mRNA was determined using semi-quantitative RT-PCR assays. […] Treating HepG2 cells cultured in medium containing 0.5% lipoprotein-depleted fetal bovine serum or serum supplemented with sterols and berberine caused time dependent increases in the expression of LDLR mRNA.

[11] = high fat diet rats treated for 15 days, berberine 80 mg/kg/day, lovastatin 10 mg/kg/day
[12] = high fat diet rats, Day 0 (untreated rats, baseline)

In the case of COc1ccc2cc3[n+](cc2c1OC)CCc1cc2c(cc1-3)OCO2 [berberine], the LDL-c [1] is reported as 1.2 ± 0.2 mmol/L, the “Total Cholesterol” value [1] is reported as 3.8 ± 0.5 mmol/L and the Triglyceride [1] is reported as 2.1 ± 0.3 mmol/L. The “amount of the mature form of SREB-2” value [2] was “no effect”, the LDLR promoter activity [3] was “no effect” and the fraction unbound [4] was 0.62. The “intravenous dose found in accumulated urine (metabolized and unmetabolized forms)” value [5] was 73%, the “intravenous dose found in the fecal matter” value [5] was 10.9% and the LD50 ([6]; intraperitoneal, peritoneal injection) was 138 to 146 mg/kg. For the same compound, the LD50 ([6]; intravenous injection) was 46.2 to 63.3 mg/kg, the LD50 ([6]; oral dose) was greater than 15000 mg/kg and the LD50 ([6]; sc, subcutaneous injection) was 7970 to 10700 mg/kg. The “Cholesterol Day 15” value [7, 11] was 2.75 mmol/L, the “LDL Day 15” value [7, 11] was 1.7 mmol/L and the “Cholesterol Day 0” value [7, 12] was 3.65 mmol/L. For the same compound, the “LDL Day 0” value [7, 12] was 2.25 mmol/L, the “activity of PKC in the livers” value [8] was “increased activity of PKC” and the “expression of PPAR-r mRNA” value [9] was “not changed”. The “LDLR expression among 700 compounds tested” value [10] was “greatest increase in LDLR expression”.

From patent publication US20080081781A1, “Methods and compositions for the treatment of metabolic syndrome” (priority 2004, published 2008)
